Measurements reported in ChEMBL document CHEMBL1201862, “PubChem BioAssay data set” (2004).
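The compound was tested at five concentrations on cells cultured in 96-well plates, with a 48-hour exposure period. At the GI50, growth is halved.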 The source made the active and inactive calls. Cut-off read from the data, not from the text of the source: active = GI50 up to about 1.1 µM and inactive = higher.

Key:
Assay in all cases: NCI-60 cell line screen, 48 h
[1] = system: A498
[2] = system: ACHN
[3] = system: HOP-92
[4] = system: IGROV-1
[5] = system: KM12
[6] = system: MOLT-4
[7] = system: Malme-3M
[8] = system: NCI-H226
[9] = system: NCI-H23
[10] = system: NCI/ADR-RES
[11] = system: OVCAR-5
[12] = system: OVCAR-8
[13] = system: SF-268
[14] = system: SK-MEL-28
[15] = system: SN12C
[16] = system: TK-10
[17] = system: UACC-257
[18] = system: UACC-62
[19] = system: SK-MEL-2
[20] = system: SK-OV-3

| SMILES | GI50 [1] | GI50 [2] | GI50 [3] | GI50 [4] | GI50 [5] | GI50 [6] | GI50 [7] | GI50 [8] | GI50 [9] | GI50 [10] | GI50 [11] | GI50 [12] | GI50 [13] | GI50 [14] | GI50 [15] | GI50 [16] | GI50 [17] | GI50 [18] | GI50 [19] | GI50 [20] |
| --- | --- | --- | --- | --- | --- | --- | --- | --- | --- | --- | --- | --- | --- | --- | --- | --- | --- | --- | --- | --- |
| CN(C)Cc1cc(C(=O)/C=C/c2ccc(F)cc2)cc(CN(C)C)c1O | 24.5 µM (inactive) | 14.6 µM (inactive) | 29.2 µM (inactive) | 22.4 µM (inactive) | 18.9 µM (inactive) | 19.5 µM (inactive) | 17.7 µM (inactive) | 38.6 µM (inactive) | 34.4 µM (inactive) | 24.7 µM (inactive) | 57.7 µM (inactive) | 21.4 µM (inactive) | 22.8 µM (inactive) | 29.2 µM (inactive) | 18.4 µM (inactive) | 85.9 µM (inactive) | 13.4 µM (inactive) | 3.14 µM (inactive) | – | – |
| COC1/C=C(C)/C=C/C(C)/C=C/C(=O)OC(/C(C)=C/C=C(\C)CNC(=O)[C@H](CO)NC=O)C(C)/C=C/C=C/C(OC)CC/C=C(C)/C=C/C1 (stereo partly specified) | > 1 µM (active) | 0.0474 µM (active) | 0.0447 µM (active) | 0.262 µM (active) | 0.0195 µM (active) | 0.0206 µM (active) | 0.0863 µM (active) | – | 0.0497 µM (active) | 0.407 µM (active) | 0.0328 µM (active) | 0.0399 µM (active) | 0.113 µM (active) | > 0.283 µM (active) | – | 0.356 µM (active) | 0.0264 µM (active) | 0.0251 µM (active) | 0.0341 µM (active) | > 1 µM (active) |
| C/C(=N\Nc1nc2ccccc2s1)c1ncccn1 | 3.13 µM (inactive) | < 0.01 µM (active) | < 0.0276 µM (active) | 0.0183 µM (active) | 0.128 µM (active) | < 0.01 µM (active) | 0.0505 µM (active) | < 0.0185 µM (active) | 0.0614 µM (active) | 0.0172 µM (active) | 0.415 µM (active) | < 0.016 µM (active) | 0.0345 µM (active) | 0.179 µM (active) | < 0.0204 µM (active) | – | < 0.0205 µM (active) | 0.101 µM (active) | 0.92 µM (active) | 0.103 µM (active) |
| CCOC(=N)n1c(=O)n(C2=NCCN2)c2ccccc21 | > 100 µM (inactive) | > 100 µM (inactive) | > 100 µM (inactive) | > 100 µM (inactive) | > 100 µM (inactive) | > 100 µM (inactive) | > 100 µM (inactive) | > 100 µM (inactive) | > 100 µM (inactive) | > 100 µM (inactive) | > 100 µM (inactive) | > 100 µM (inactive) | > 100 µM (inactive) | > 100 µM (inactive) | > 100 µM (inactive) | > 100 µM (inactive) | > 100 µM (inactive) | > 100 µM (inactive) | – | > 100 µM (inactive) |
| O=C(O)C(Cc1cccs1)C(=O)O | > 100 µM (inactive) | > 100 µM (inactive) | > 100 µM (inactive) | > 100 µM (inactive) | > 100 µM (inactive) | – | > 100 µM (inactive) | > 100 µM (inactive) | > 100 µM (inactive) | > 100 µM (inactive) | > 100 µM (inactive) | > 100 µM (inactive) | > 100 µM (inactive) | > 100 µM (inactive) | > 100 µM (inactive) | > 100 µM (inactive) | > 100 µM (inactive) | > 100 µM (inactive) | > 100 µM (inactive) | > 100 µM (inactive) |
| Cc1ccc2c(c1C)C(=O)/C(=C/c1ccccc1C(=O)O)C2 | > 100 µM (inactive) | > 100 µM (inactive) | > 100 µM (inactive) | > 100 µM (inactive) | > 100 µM (inactive) | > 100 µM (inactive) | > 100 µM (inactive) | > 100 µM (inactive) | > 100 µM (inactive) | > 100 µM (inactive) | > 100 µM (inactive) | > 100 µM (inactive) | > 100 µM (inactive) | > 100 µM (inactive) | > 100 µM (inactive) | > 100 µM (inactive) | > 100 µM (inactive) | > 100 µM (inactive) | > 100 µM (inactive) | – |
| Cc1c(Cl)c(S(N)(=O)=O)cc(S(N)(=O)=O)c1NC(=O)c1ccc(Cl)cc1 | > 100 µM (inactive) | > 100 µM (inactive) | > 100 µM (inactive) | > 100 µM (inactive) | > 100 µM (inactive) | > 100 µM (inactive) | > 100 µM (inactive) | > 100 µM (inactive) | > 100 µM (inactive) | > 100 µM (inactive) | > 100 µM (inactive) | > 100 µM (inactive) | > 100 µM (inactive) | > 100 µM (inactive) | > 100 µM (inactive) | > 100 µM (inactive) | > 100 µM (inactive) | > 100 µM (inactive) | – | > 100 µM (inactive) |
| CCCN(CCC)C(=S)N/N=C(/C)c1ccccc1O | 14.3 µM (inactive) | 3.97 µM (inactive) | 15.9 µM (inactive) | 4.43 µM (inactive) | 4.98 µM (inactive) | 4.04 µM (inactive) | 3.2 µM (inactive) | – | 12.1 µM (inactive) | 1.57 µM (inactive) | 10.3 µM (inactive) | 3.42 µM (inactive) | 4.42 µM (inactive) | 7.28 µM (inactive) | 5.82 µM (inactive) | 6.19 µM (inactive) | 7.71 µM (inactive) | 3.19 µM (inactive) | 6.7 µM (inactive) | 10.2 µM (inactive) |
| O=P(c1ccccc1)(c1ccccc1)C(NCc1ccccc1)c1ccc(F)cc1 (stereo unspecified) | 15.2 µM (inactive) | 13.8 µM (inactive) | 12.9 µM (inactive) | 15.5 µM (inactive) | 13.2 µM (inactive) | 14.2 µM (inactive) | 17.9 µM (inactive) | 16.2 µM (inactive) | 13.6 µM (inactive) | 14 µM (inactive) | – | 19 µM (inactive) | 19.7 µM (inactive) | 15.1 µM (inactive) | 17.9 µM (inactive) | 15.9 µM (inactive) | 18 µM (inactive) | 13 µM (inactive) | 15 µM (inactive) | 16.1 µM (inactive) |
| C=C1c2nc3ccccc3n2C=C(c2ccc(Cl)cc2)N1c1ccc(OC)cc1 | 20.6 µM (inactive) | 3.56 µM (inactive) | 10.3 µM (inactive) | 6.27 µM (inactive) | 6.81 µM (inactive) | 73.1 µM (inactive) | 2.82 µM (inactive) | 5.46 µM (inactive) | 9.95 µM (inactive) | 3.48 µM (inactive) | 17.4 µM (inactive) | 4.43 µM (inactive) | – | 7.57 µM (inactive) | 11.9 µM (inactive) | 4.82 µM (inactive) | 5.07 µM (inactive) | 13 µM (inactive) | 22.9 µM (inactive) | 10.7 µM (inactive) |
| CCC1(O)CN(CCOC)[C@H]2C[C@@H]1C(=O)c1[nH]c3ccccc3c12 (stereo partly specified) | > 100 µM (inactive) | > 100 µM (inactive) | > 100 µM (inactive) | > 100 µM (inactive) | > 100 µM (inactive) | > 100 µM (inactive) | > 100 µM (inactive) | > 100 µM (inactive) | > 100 µM (inactive) | > 100 µM (inactive) | > 100 µM (inactive) | > 100 µM (inactive) | > 100 µM (inactive) | > 100 µM (inactive) | > 100 µM (inactive) | > 100 µM (inactive) | > 100 µM (inactive) | – | > 100 µM (inactive) | – |
